Assay results from patent publication US11708360B2, “N-substituted-dioxocyclobutenylamino-3-hydroxy-picolinamides useful as CCR6 inhibitors” (Pfizer Inc., priority 2018, dated 2023).

Columns and labels:
[1] = biological target: T1, CCR6 (Homo sapiens, UniProt P51684); assay: CCR6+ T Cell Chemotaxis Assay; format: cell-based; conditions: for IC50: Table 11, human CD4+CCR6+CXCR3- T cells, CCL20 0.5 nM in bottom chamber, 1 h at 37° C., read-out: IC50; for T Cell Chemotaxis Selectivity: Table 13, T cell chemotaxis compared to neutrophil chemotaxis, NS = not selective for T cell chemotaxis compared to neutrophil chemotaxis
T1 construct: Human CD4+CCR6+CXCR3-T cells were isolated from leukopak from healthy donors; endogenous in cells
T1 sequence (P51684 1-374): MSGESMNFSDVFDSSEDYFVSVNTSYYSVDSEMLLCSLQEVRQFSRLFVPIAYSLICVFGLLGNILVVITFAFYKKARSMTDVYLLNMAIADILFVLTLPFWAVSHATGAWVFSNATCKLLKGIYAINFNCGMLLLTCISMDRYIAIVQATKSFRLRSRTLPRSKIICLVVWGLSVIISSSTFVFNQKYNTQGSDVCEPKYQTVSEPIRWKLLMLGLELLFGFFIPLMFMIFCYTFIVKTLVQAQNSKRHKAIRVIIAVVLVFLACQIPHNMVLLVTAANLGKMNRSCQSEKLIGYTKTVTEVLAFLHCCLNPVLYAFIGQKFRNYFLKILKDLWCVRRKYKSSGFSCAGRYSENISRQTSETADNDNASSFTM
Description: Human CD4+CCR6+CXCR3-T cells were isolated from leukopak from healthy donors using EasySep™ Human Th17 Cell Enrichment Kit. […] Day 4 post activation, Dynabeads were removed from the culture. The activated T cells were maintained at 1-2×10^6 cells/mL for 15 days by feeding fresh growth media when needed.
For IC50 determination, the top and bottom of the chemotaxis chamber contained the same concentration of compound. DMSO was kept constant at 0.1% (v/v) in all wells. The final concentration of CCL20 (Peprotech 300-29A) in the bottom chamber is 0.5 nM. The fully assembled chemotaxis plate was placed in a cell culture incubator at 37° C., 5% CO2 for 1 h. After incubation, the top filter was removed, followed by a quick freeze of the bottom chamber at −80° C. for 1 h. The migrated cells in the bottom chamber were stained with CyQUANT dye (Life Technologies, C7026) for cell number determination.
IC50 values for compounds of the present invention (Table 11) were determined by the non-linear regression analysis of dose response curves.

[2] = biological target: T2, CXCR2 (Homo sapiens, UniProt P25025); assay: Human Neutrophil Chemotaxis Assay; format: cell-based; set-up: Human neutrophils were purified from freshly drawn human whole blood; endogenous in cells; host or cells: primary human neutrophils from fresh whole blood; conditions: Table 12; human neutrophils migrating towards the CXCR2 ligand GROα; read-out: IC50
T2 sequence (P25025 1-360): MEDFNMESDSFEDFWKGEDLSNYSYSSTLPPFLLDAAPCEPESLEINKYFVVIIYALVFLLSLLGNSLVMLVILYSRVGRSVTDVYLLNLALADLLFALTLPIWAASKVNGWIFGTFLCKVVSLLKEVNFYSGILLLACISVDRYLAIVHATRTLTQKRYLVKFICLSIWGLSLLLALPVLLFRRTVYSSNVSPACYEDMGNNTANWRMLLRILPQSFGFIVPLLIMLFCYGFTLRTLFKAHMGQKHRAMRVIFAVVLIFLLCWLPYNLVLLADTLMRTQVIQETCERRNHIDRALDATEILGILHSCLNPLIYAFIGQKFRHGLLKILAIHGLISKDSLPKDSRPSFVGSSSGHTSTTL
Protocol: After 30 min, the labeled neutrophils were washed twice in chemotaxis buffer, resuspended as before and used immediately. For the assay, test compounds were tested in a dose-response format to determine IC50. Labeled neutrophils (50 μL) were pre-incubated with diluted test compound (50 μL) for 30 min in a 96-well plate (Greiner). Next, 100 μL of diluted compound was mixed with 100 μL of GROα (Peprotech #300-11, 2 nM) in the bottom portion of the chemotaxis chamber. The top portion (insert) of the chemotaxis system containing the FluoroBlok porous membrane was then assembled together. 50 μL of the pre-incubated neutrophils were added to the FluoroBlok insert (top portion) and chemotaxis measured by the neutrophils ability to migrate through the membrane towards the specific CXCR2 ligand, GROα.
IC50 values for compounds of the present invention (Table 12) were determined by the non-linear regression analysis of dose response curves.

| SMILES | IC50 [1] | T Cell Chemotaxis Selectivity [1] | IC50 [2] |
| --- | --- | --- | --- |
| COc1cn(C)nc1[C@H](Nc1c(Nc2ccnc(C(=O)N(C)C)c2O)c(=O)c1=O)C(C)(C)C [Example 13, (R)-3-Hydroxy-4-((2-((1-(4-methoxy-1-methyl-1H-pyrazol-3-yl)-2,2-dimethylpropyl)amino)-3,4-dioxocyclobut-1-en-1-yl)amino)-N,N-dimethylpicolinamide] | 5.4 nM | 60 | 328 nM |
| COc1cn(C)nc1[C@H](Nc1c(Nc2ccnc(C(=O)N(C)C(C)C)c2O)c(=O)c1=O)C(C)(C)C [Example 14, (R)-3-Hydroxy-N-isopropyl-4-((2-((1-(4-methoxy-1-methyl-1H-pyrazol-3-yl)-2,2-dimethylpropyl)amino)-3,4-dioxocyclobut-1-en-1-yl)amino)-N-methylpicolinamide] | 12.5 nM | 22 | 272 nM |
| CN(C)C(=O)c1nccc(Nc2c(N[C@@H](c3nn(C)cc3OC(F)F)C3(C)CCCC3)c(=O)c2=O)c1O [Example 15, (R)-4-((2-(((4-(Difluoromethoxy)-1-methyl-1H-pyrazol-3-yl)(1-methylcyclopentyl)methyl)amino)-3,4-dioxocyclobut-1-en-1-yl)amino)-3-hydroxy-N,N-dimethylpicolinamide] | 10.6 nM | 69 | 735 nM |
| CN(C)C(=O)c1nccc(Nc2c(N[C@@H](c3nn(C)cc3C#N)C3(C)CCCC3)c(=O)c2=O)c1O [Example 16, (R)-4-((2-(((4-Cyano-1-methyl-1H-pyrazol-3-yl)(1-methylcyclopentyl)methyl)amino)-3,4-dioxocyclobut-1-en-1-yl)amino)-3-hydroxy-N,N-dimethylpicolinamide] | 41.7 nM | 104 | 4350 nM |
| CCc1cn(C)nc1[C@H](Nc1c(Nc2ccnc(C(=O)N(C)C)c2O)c(=O)c1=O)C1(C)CCCC1 [Example 18, (R)-4-((2-(((4-Ethyl-1-methyl-1H-pyrazol-3-yl)(1-methylcyclopentyl)methyl)amino)-3,4-dioxocyclobut-1-en-1-yl)amino)-3-hydroxy-N,N-dimethylpicolinamide] | 3.3 nM | 306 | 1010 nM |
| Cc1nc([C@H](Nc2c(Nc3ccnc(C(=O)N(C)C)c3O)c(=O)c2=O)C2(C)CC2)c(C)s1 [Example 19, (R)-4-((2-(((2,5-Dimethylthiazol-4-yl)(1-methylcyclopropyl)-methyl)amino)-3,4-dioxocyclobut-1-en-1-yl)amino)-3-hydroxy-N,N-dimethylpicolinamide] | 70.6 nM | 3 | 197 nM |
| Cc1cn(C)nc1[C@H](Nc1c(Nc2ccnc(C(=O)N(C)C)c2O)c(=O)c1=O)C1(C)CC1 [Example 20, (R)-4-((2-(((1,4-Dimethyl-1H-pyrazol-3-yl)(1-methylcyclopropyl)methyl)amino)-3,4-dioxocyclobut-1-en-1-yl)amino)-3-hydroxy-N,N-dimethylpicolinamide] | 271 nM | – | 167 nM |
| CCc1cn(C)nc1[C@H](Nc1c(Nc2ccnc(C(=O)N(C)C)c2O)c(=O)c1=O)C1(C)CC1 [Example 21, (R)-4-((2-(((4-Ethyl-1-methyl-1H-pyrazol-3-yl)(1-methylcyclopropyl)methyl)amino)-3,4-dioxocyclobut-1-en-1-yl)amino)-3-hydroxy-N,N-dimethylpicolinamide] | 102 nM | 3 | 293 nM |
| Cc1cn(C)nc1[C@H](Nc1c(Nc2ccnc(C(=O)N(C)C)c2O)c(=O)c1=O)C(C)(C)C [Example 22, (R)-4-((2-((1-(1,4-Dimethyl-1H-pyrazol-3-yl)-2,2-dimethylpropyl)amino)-3,4-dioxocyclobut-1-en-1-yl)amino)-3-hydroxy-N,N-dimethylpicolinamide] | 7.4 nM | 19 | 141 nM |
| Cc1cn(C)nc1[C@H](Nc1c(Nc2ccnc(C(=O)N(C)C)c2O)c(=O)c1=O)C1(C)CCC1 [Example 23, (R)-4-((2-(((1,4-Dimethyl-1H-pyrazol-3-yl)(1-methylcyclobutyl)methyl)amino)-3,4-dioxocyclobut-1-en-1-yl)amino)-3-hydroxy-N,N-dimethylpicolinamide] | 16.5 nM | 15 | 248 nM |
| Cc1nc([C@H](Nc2c(Nc3ccnc(C(=O)N(C)C)c3O)c(=O)c2=O)C2(C)CCC2)c(C)s1 [Example 24, (R)-4-((2-(((2,5-Dimethylthiazol-4-yl)(1-methylcyclobutyl)-methyl)amino)-3,4-dioxocyclobut-1-en-1-yl)amino)-3-hydroxy-N,N-dimethylpicolinamide] | 3.1 nM | 325 | 1010 nM |
| Cc1nc([C@H](Nc2c(Nc3ccnc(C(=O)N(C)C)c3O)c(=O)c2=O)C(C)(C)C)c(C)s1 [Example 25, (R)-4-((2-((1-(2,5-Dimethylthiazol-4-yl)-2,2-dimethylpropyl)-amino)-3,4-dioxocyclobut-1-en-1-yl)amino)-3-hydroxy-N,N-dimethylpicolinamide] | 1.2 nM | 296 | 355 nM |
| CCc1cn(C)nc1[C@H](Nc1c(Nc2ccnc(C(=O)N(C)C)c2O)c(=O)c1=O)C1(C)CCC1 [Example 26, (R)-4-((2-(((4-Ethyl-1-methyl-1H-pyrazol-3-yl)(1-methylcyclobutyl)methyl)amino)-3,4-dioxocyclobut-1-en-1-yl)amino)-3-hydroxy-N,N-dimethylpicolinamide] | 3.3 nM | 43 | 142 nM |
| CCc1cn(C)nc1[C@H](Nc1c(Nc2ccnc(C(=O)N(C)C)c2O)c(=O)c1=O)C(C)(C)C [Example 27, (R)-4-((2-((1-(4-Ethyl-1-methyl-1H-pyrazol-3-yl)-2,2-dimethylpropyl)amino)-3,4-dioxocyclobut-1-en-1-yl)amino)-3-hydroxy-N,N-dimethylpicolinamide] | 13.2 nM | 4 | 52.6 nM |
| Cc1sc(CO)nc1[C@H](Nc1c(Nc2ccnc(C(=O)N(C)C)c2O)c(=O)c1=O)C1(C)CCCC1 [Example 28, (R)-3-Hydroxy-4-((2-(((2-(hydroxymethyl)-5-methylthiazol-4-yl)(1-methylcyclopentyl)methyl)amino)-3,4-dioxocyclobut-1-en-1-yl)amino)-N,N-dimethylpicolinamide] | 36.7 nM | 60 | 2190 nM |
| CN(C)C(=O)c1nccc(Nc2c(N[C@@H](c3nn(C)cc3C3CC3)C3(C)CCCC3)c(=O)c2=O)c1O [Example 29, (R)-4-((2-(((4-Cyclopropyl-1-methyl-1H-pyrazol-3-yl)(1-methylcyclopentyl)methyl)amino)-3,4-dioxocyclobut-1-en-1-yl)amino)-3-hydroxy-N,N-dimethylpicolinamide] | 12 nM | 367 | 4410 nM |
| CCN(C)C(=O)c1nccc(Nc2c(N[C@@H](c3nn(C)cc3C#N)C3(C)CCCC3)c(=O)c2=O)c1O [Example 30, (R)-4-((2-(((4-Cyano-1-methyl-1H-pyrazol-3-yl)(1-methylcyclopentyl)methyl)amino)-3,4-dioxocyclobut-1-en-1-yl)amino)-N-ethyl-3-hydroxy-N-methylpicolinamide] | 96.1 nM | 42 | 4030 nM |
